Columns and labels:
Type in all cases: in vivo
[1] = Sweetness comparison procedure against sucrose reference solutions, trained sensory evaluators; details: determined at approximately 8% SEV
Experimental: The S,S stereoisomer of monatin is approximately 50-200 times sweeter than sucrose by weight. The R,R stereoisomer of monatin is approximately 2000-2400 times sweeter than sucrose by weight. The sweetness of the monatin is calculated using experienced sensory evaluators in a sweetness comparison procedure, where a test sweetener solution is matched for sweetness intensity against one of a series of reference solutions. The solutions may be prepared, for example, using a buffer comprising 0.16% (w/v) citric acid and 0.02% (w/v) sodium citrate at ˜pH 3.0.
Specifically, one may assess sweetness of a sweetener relative to sucrose by using a panel of trained sensory evaluators experienced in the sweetness estimation procedure. All samples (in same buffers) are served in duplicate at a temperature of 22° C. ±1° C. Sample solutions may be prepared, for example, using a buffer comprising 0.16% (w/v) citric acid and 0.02% (w/v) sodium citrate at ˜pH 3.0. Test solutions, coded with 3 digit random number codes, are presented individually to panelists, in random order. Sucrose reference standards, ranging from 2.0-10.0% (w/v) sucrose, increasing in steps of 0.5% (w/v) sucrose are also provided. Panelists are asked to estimate sweetness by comparing the sweetness of the test solution to the sucrose standards. This is carried out by taking 3 sips of the test solution, followed by a sip of water, followed by 3 sips of sucrose standard followed by a sip of water, etc. Panelists estimate the sweetness to one decimal place, e.g., 6.8, 8.5. A five minute rest period is imposed between evaluating the test solutions. Panelists are also asked to rinse well and eat a cracker to reduce any potential carry over effects.
Sucrose equivalent value (SEV) (e.g., % sucrose), determined by the panel of trained sensory evaluators, is plotted as a function of monatin concentration to obtain a dose response curve. A polynomial curve fit is applied to the dose response curve and used to calculate the sweetness intensity or potency at a particular point, e.g., 8% SEV, by dividing the sucrose equivalent value (SEV) by the monatin concentration (e.g., % monatin). See e.g., FIG. 15 (R,R/S,S monatin dose response curve); FIG. 14 (R,R monatin dose response curve). The above-mentioned sweetness intensities for S,S and R,R monatin (i.e., approximately 50-200 times sweeter and approximately 2000-2400 times sweeter than sucrose by weight, respectively) were determined at approximately 8% SEV.

[2] = Sensory evaluation of soft drinks (lemon/lime, orangeade, cola)
Experimental: Beverages (cola, lemon-lime and orange) were formulated and sweetened with aspartame, sucralose or R,R monatin. Qualitative evaluation was carried out.
The term “throw” refers to dilution in water. For example, a throw of “1+4” means 1 part concentrate formulation to 4 parts water. Thus, if a concentrate formulation includes 0.021% wt/vol (i.e., 210 ppm) of R,R monatin, for example, a throw of 1+4 makes a diluted beverage containing 42 ppm (210 ppm/5) R,R monatin.
Final ready-to-drink beverages (after throw) contained sweetener concentrations as follows:
Evaluation of these soft drinks was carried out by a panel (n=6) of assessors who evaluated each set of drinks on separate tasting occasions.

[3] = Sensory evaluation of sweeteners in coffee and iced tea; details: 200 mL serving
Experimental: Monatin sweetener formulations, comprising R,R monatin or R,R monatin/erythritol combinations, were assessed relative to other known sweeteners (aspartame and sucralose) in coffee and iced tea. The key sensory parameters assessed included sweetness quality, aftertaste, bitter taste and its aftertaste. Qualitative evaluation was carried out.
Standard coffee was used in which to evaluate sweetener performance (Table 17).
Sweeteners were added to coffee at the following concentrations:
An ice tea formulation was developed to evaluate sweetener performance (Table 18).
Sweeteners were added to tea at the following concentrations:
The evaluation of these coffee and tea drinks was carried out by a panel (n=6) of experienced sensory evaluators who evaluated the coffee products on one tasting occasion and the tea products on a subsequent occasion.

[4] = Time intensity profile in a soft drink system; details: 80 ppm monatin, 10.0% sucrose, 200 ppm sucralose, pH 3.2 model soft drink; for Intensity of Maximum Sweetness: scale 0-100
Experimental: Solutions of 80 ppm monatin (racemic mix of monatin described in Example 14), 10.0% (w/v) sucrose and 200 ppm sucralose were prepared in the pH 3.2 model soft drink system described in Example 14. The time intensity profile of these solutions then was assessed using the following procedure. Six panelists were included in the study. These panelists were screened for their general sensory acuity and selected for their sensitivity to sweetness intensity and sweetness quality differences. All were experienced in methods of sweetener assessment and had received special training in time intensity evaluations. Training sessions were carried out initially to familiarize the panel with the method of evaluation and scoring the samples over time using a computerized data entry system.
Samples of each solution (13 mL) were coded and presented individually to panelists, in random order. For each panelist, immediately after swallowing, the computer recorded timed intensity readings on the scale of 0-100 each second, up to 60 seconds. Each solution was evaluated in duplicate.

[5] = Taste profiling of lemon/lime carbonates and colas; details: HFCS 10%, aspartame 500 ppm, sucralose 200 ppm, blends 30.8 ppm/5.0%; for Average Score: score 1, poor-5, good, sucrose 10%
Experimental: Cola and lemon/lime beverages were prepared using the following formulations and sweetened with sucrose, HFCS (55% fructose), aspartame, sucralose, monatin (racemic mix described in Example 14), monatin/sucrose, or monatin/HFCS. One part of syrup was added to 5.5 parts carbonated water and evaluated.
Assessments were carried out ‘double blind’ by a panel of trained tasters. The sucrose-sweetened product was identified as the control and all other products randomly coded. Panelists were asked to assess the randomly coded sample relative to the control for the following attributes:
Panelists also were asked assign a score (1; poor-5; good) for the quality of the sweetener system. A summary of the comments generated together with the average score awarded is presented in Tables 12 and 13 for lemon/lime carbonates and colas, respectively. […] Blends of monatin/carbohydrate rated higher. In the cola, monatin was similar to aspartame.

[6] = Taste profiling of monatin/carbohydrate blends
Experimental: The quality of equisweet monatin/carbohydrate (50:50) blends then was assessed relative to sucrose by a small panel of trained assessors. This evaluation was carried out “double blind.” The sucrose-sweetened system was identified as the control and all other products randomly coded. Panelists were asked to assess the randomly coded sample relative to the control for the following attributes: Sweetness Profile: Onset, build and decay; Flavor Profile: Acidity, bitterness and other characteristics; Mouthfeel; and Aftertaste. Panelists also were asked to assign a score (1; poor-5; good) for the quality of the sweetener system. A summary of the comments made and scores given is presented as Table 10.

[7] = cola, sucrose 10% (control), monatin 80 ppm
[8] = lemon/lime carbonate, sucrose 10% (control), monatin 67 ppm
[9] = lemon/lime carbonate, monatin 67 ppm
[10] = equisweet monatin/carbohydrate (50:50) blends relative to sucrose control

SMILES: NC(CC(O)(Cc1c[nH]c2ccccc12)C(=O)O)C(=O)O (stereo not drawn) [R,R monatin, 2-hydroxy-2-(indol-3-ylmethyl)-4-aminoglutaric acid]
- times sweeter than sucrose by weight [1]: 2000-2400 times
- times sweeter than sucrose by weight ([1]; listed as R,R): 2000-2400 times
- times sweeter than sucrose by weight ([1]; listed as R,R stereoisomer): 2000-2400 times

SMILES: NC(CC(O)(Cc1c[nH]c2ccccc12)C(=O)O)C(=O)O (stereo not drawn) [S,S monatin, 2-hydroxy-2-(indol-3-ylmethyl)-4-aminoglutaric acid]
- times sweeter than sucrose by weight [1]: 50-200 times
- times sweeter than sucrose by weight ([1]; listed as S,S): 50-200 times
- times sweeter than sucrose by weight ([1]; listed as S,S stereoisomer): 50-200 times

SMILES: OC[C@H]1O[C@H](O[C@]2(CCl)O[C@H](CCl)[C@@H](O)[C@@H]2O)[C@H](O)[C@@H](O)[C@H]1Cl [Sucralose, sucralose]
- Comments (sensory evaluation) ([2]; Cola, aspartame 550 ppm, sucralose 220 ppm, R,R monatin 45 ppm): Delay in sweetness onset means first
- Comments (sensory evaluation) ([2]; Lemon/lime soft drink, aspartame 500 ppm, sucralose 200 ppm, R,R monatin 42 ppm): Slow sweetness onset allows stronger
- Comments (sensory evaluation) ([2]; Orangeade, aspartame 550 ppm, sucralose 220 ppm, R,R monatin 45 ppm): Delay in sweetness onset means first
- Comments (sensory evaluation) ([3]; Coffee, aspartame 250 ppm, sucralose 82 ppm, R,R monatin 25 ppm + maltodextrin or erythritol (1 g, 0.5%)): Slow sweetness onset allows stronger
- Comments (sensory evaluation) ([3]; Iced Tea, aspartame 450 ppm, sucralose 170 ppm, R,R monatin 40 ppm + maltodextrin or erythritol (1 g, 0.5%)): Delay in sweetness onset means first
- Area Under Curve [4]: 119.7 unit × s
- Rate of Decline [4]: 2.1 unit/s
- Rate of Onset [4]: 16.0 unit/s
- Time for Sweetness to Decline to Half Maximum Value [4]: 33.1 s
- Time to Half Maximum Sweetness [4]: 2.6 s
- Time to Maximum Sweetness [4]: 8.0 s
- Intensity of Maximum Sweetness [4]: 64.6 unit
- Aftertaste [5, 7]: Some sweetness
- Flavor Profile [5, 7]: Sweet flavor, slightly
- Mouthfeel [5, 7]: Slightly thinner than
- Aftertaste [5, 8]: Slight licorice note
- Flavor Profile [5, 8]: Zesty and refreshing
- Average Score ([5]; cola, monatin 80 ppm): 3.8
- Average Score [5, 9]: 4.1

SMILES: OC[C@H]1O[C@@](CO)(O[C@H]2O[C@H](CO)[C@@H](O)[C@H](O)[C@H]2O)[C@@H](O)[C@@H]1O [Sucrose, sucrose]
- Aftertaste [6, 10]: Slight lingering
- Flavor Profile [6, 10]: Pleasant, citrus
- Mouthfeel [6, 10]: Full, syrupy
- Sweetness Profile [6, 10]: Fast onset and build
- Average Score ([6]; score 1, poor-5, good, equisweet monatin/carbohydrate (50:50) blends, sucrose control): 4.0
- Area Under Curve [4]: 116.9 unit × s
- Rate of Decline [4]: 2.3 unit/s
- Rate of Onset [4]: 17.9 unit/s
- Time for Sweetness to Decline to Half Maximum Value [4]: 24.9 s
- Time to Half Maximum Sweetness [4]: 2.3 s
- Time to Maximum Sweetness [4]: 8.0 s
- Intensity of Maximum Sweetness [4]: 64.1 unit
- Flavor Profile [5, 7]: Sweet, rounded, warm
- Aftertaste [5, 8]: Slight bitterness and
- Flavor Profile [5, 8]: Soft, balanced
- Average Score ([5]; cola, monatin 80 ppm): 4.5
- Average Score [5, 9]: 4.8

Reference: US20050106305A1, “Beverage compositions comprising monatin and methods of making same” (Cargill, Inc., priority 2003, published 2005)
